Holding throughout (assay type): cell-based, human
In test [1] the test system is JEG3 cells. In words: Western blot for fibronectin in sEVs from JEG3 cell conditioned media. The method, then:
Subsequent Western blotting was performed.

The test system of test [2] is placental villous explants. In words: Fibronectin in sEVs from placental villous explant culture. As to conditions: E-PE villous explants maintained at 3% O2, Hinokitiol. The method, then: Villous explants were isolated and cultured in 12-well plates with mesh inserts, from term control (n=3) and E-PE placentae (n=3). Term explants were maintained at normoxia (8% O2) or hypoxia (3% O2), while E-PE explants were maintained at 3% O2 (constituting their normoxia) and treated with […] Hinokitiol. Following incubation with their respective treatments, explant tissue was snap-frozen in liquid nitrogen for protein extraction and downstream analyses, while small extracellular vesicles (sEVs) were isolated from conditioned media by ultrafiltration using Amicon® Ultra-4 Centrifugal Filter Units (UFC8100, Millipore Sigma). […] Subsequent Western blotting was performed.

Test [3] concerns JEG3 cells. Briefly: Immunofluorescence co-localization of fibronectin with CD63/RAB7 in JEG3 cells.
For a further test, the system named is preeclampsia pMSCs. Briefly: Exposure of preeclampsia placental mesenchymal stromal cells (pMSCs).

From US20240280589A1, “USE OF FIBRONECTIN IN PREDICTING PREECLAMPSIA” (Sinai Health System, priority 2023, published 2024) come the findings set out here.

In the case of `CC(C)c1cccc(=O)c(O)c1` [Hinokitiol], the sEV fibronectin content entry in the test with JEG3 cells [1] (JEG3 cells at 3% O2, 24 hours, 1 μM, normalized to CD63) was “significantly reduced sEV fibronectin content to control levels”. Besides, in the test with JEG3 cells [1] (JEG3 cells at 21% O2), the sEV fibronectin levels result was “no discernible effect”. Besides, the “fibronectin increase in explant-derived sEVs” value in test [2] is “attenuated”. For the same compound, the “Pearson's Correlation Coefficient between fibronectin and CD63” value with JEG3 cells [3] (3% O2 + 1 μM Hinokitiol) is listed as 0.31. Further, the “fibronectin co-localization with late endosomal marker RAB7 and sEV marker CD63” value with JEG3 cells [3] (3% O2, relative to hypoxia alone) was “attenuated fibronectin co-localization”. Besides, in the test on preeclampsia pMSCs, the fibronectin fibrillar deposition result was “improved” and the “labile (useable) intracellular iron pool” value was “restored”.
